US20050137259A1, “Insulin secretion potentiator” (Use- Techno Corporation, priority 2003, published 2005)

Tests used:
Type in all cases: in vivo, human
[1] = system: borderline diabetic patients; assay: Glucose tolerance test (75 g glucose), blood insulin level (IRI), double-blind crossover; details: 10 mg oral, 31 borderline diabetic patients, p<0.05
Method: A glucose tolerance test was performed after administration of corosolic acid or a placebo, in a double-blind crossover manner, and the blood insulin level (IRI: immunoreactive insulin) was assayed.
(§1) First, 31 borderline diabetic patients as test subjects were orally administered corosolic acid (10 mg, >99% purity) or a placebo, and blood was sampled immediately thereafter with the blood insulin level at that time designated as the value at 0 minutes. Immediately after blood sampling, 75 g of glucose was orally administered to each test subject to start a glucose tolerance test, and blood was sampled after periods of 30 minutes, 60 minutes, 90 minutes, 120 minutes and 180 minutes for measurement of the blood insulin level.
FIG. 1 is a graph showing the blood insulin levels during the glucose tolerance test. The horizontal axis represents time (min) after start of the glucose tolerance test, and the vertical axis represents IRI (μU/mL). In the graph, (a) is a case with administration of corosolic acid and (b) is a case with administration of the placebo.

[2] = system: borderline diabetic patients; assay: Glucose tolerance test (75 g glucose), blood glucose level (plasma glucose concentration), double-blind crossover; details: 10 mg oral, 35 borderline diabetic patients, p<0.05
Method: The following test was conducted to confirm that corosolic acid has a hypoglycemic effect. A glucose tolerance test was performed after administration of corosolic acid, banaba extract or a placebo, in a double-blind crossover manner, and the blood glucose level (plasma glucose concentration) was assayed.
as §1, with “35” for “31”, “purity), banaba extract (trade name: COROSOLIA M, product of Use Techno Corporation; administered at 10 mg of corosolic acid)” for “purity)”, “glucose” for “insulin”
FIG. 2 is a graph showing blood glucose levels during the glucose tolerance test. The horizontal axis represents time (min) after start of the glucose tolerance test, and the vertical axis represents plasma glucose concentration (mg/dL). In the graph, (c) is a case with administration of corosolic acid, (d) is a case with administration of banaba leaf extract and (e) is a case with administration of the placebo.

[3] = system: borderline diabetic patients; assay: Blood glucose and blood insulin levels after administration in the absence of glucose load (fasted), crossover double-blind; details: single 10 mg dose; for blood glucose level (G) / blood insulin level (I): fasted, no glucose load; for blood insulin level (I): unit assumed
Method: Three borderline diabetic patients (person, person and person) were instructed to fast from 8:00 pm (to ensure absence of glucose load), and were administered a placebo once or the test agent (corosolic acid) once at 9:00 am on the following day, after which the changes in blood glucose level and blood insulin level were measured. The participants were given absolutely no information regarding placebo or test agent (crossover, double-blind). The corosolic acid was administered in a single 10 mg dose, and each test was conducted twice.
FIG. 3 is a graph showing changes in blood glucose levels with administration of corosolic acid and a placebo in the absence of a glucose load, and FIG. 4 is a graph showing changes in blood insulin levels with administration of corosolic acid and a placebo in the absence of a glucose load.

[4] = 120 minutes after start of glucose tolerance test

C[C@H]1[C@H](C)CC[C@]2(C(=O)O)CC[C@]3(C)C(=CC[C@@H]4[C@@]5(C)C[C@@H](O)[C@H](O)C(C)(C)[C@@H]5CC[C@]43C)[C@H]12 [corosolic acid]
blood insulin level compared to placebo ([1]; 30 minutes after start of glucose tolerance test): significant increase
blood insulin level compared to placebo [1, 4]: significant drop
blood glucose level compared to placebo ([2]; 90 minutes after start of glucose tolerance test): significant decrease
blood glucose level compared to placebo [2, 4]: significant decrease
blood glucose levels, corosolic acid versus placebo ([3]; absence of glucose load, FIG. 3): no significant difference
blood insulin levels, corosolic acid versus placebo ([3]; absence of glucose load, FIG. 4): no significant difference
blood glucose level (G) ([3]; participant A, after 0 min): 110 mg/dL
blood insulin level (I) ([3]; participant A, after 0 min): 9 µU/mL
blood glucose level (G) ([3]; participant A, after 30 min): 104 mg/dL
blood insulin level (I) ([3]; participant A, after 30 min): 6.9 µU/mL
blood glucose level (G) ([3]; participant A, after 60 min): 107 mg/dL
blood insulin level (I) ([3]; participant A, after 60 min): 6.6 µU/mL
blood glucose level (G) ([3]; participant A, after 90 min): 104 mg/dL
blood insulin level (I) ([3]; participant A, after 90 min): 5.9 µU/mL
blood glucose level (G) ([3]; participant A, after 120 min): 104 mg/dL
blood insulin level (I) ([3]; participant A, after 120 min): 6.6 µU/mL
blood glucose level (G) ([3]; participant A, after 180 min): 102 mg/dL
blood insulin level (I) ([3]; participant A, after 180 min): 5.1 µU/mL
blood glucose level (G) ([3]; participant B, after 0 min): 144 mg/dL
blood insulin level (I) ([3]; participant B, after 0 min): 2.5 µU/mL
blood glucose level (G) ([3]; participant B, after 30 min): 143 mg/dL
blood insulin level (I) ([3]; participant B, after 30 min): 2.6 µU/mL
blood glucose level (G) ([3]; participant B, after 60 min): 147 mg/dL
blood insulin level (I) ([3]; participant B, after 60 min): 3 µU/mL
blood glucose level (G) ([3]; participant B, after 90 min): 149 mg/dL
blood insulin level (I) ([3]; participant B, after 90 min): 2 µU/mL
blood glucose level (G) ([3]; participant B, after 120 min): 150 mg/dL
blood insulin level (I) ([3]; participant B, after 120 min): 3.4 µU/mL
blood glucose level (G) ([3]; participant B, after 180 min): 146 mg/dL
blood insulin level (I) ([3]; participant B, after 180 min): 2.4 µU/mL
blood glucose level (G) ([3]; participant C, after 0 min): 90 mg/dL
blood insulin level (I) ([3]; participant C, after 0 min): 4.5 µU/mL
blood glucose level (G) ([3]; participant C, after 30 min): 90 mg/dL
blood insulin level (I) ([3]; participant C, after 30 min): 4.1 µU/mL
blood glucose level (G) ([3]; participant C, after 60 min): 88 mg/dL
blood insulin level (I) ([3]; participant C, after 60 min): 3.9 µU/mL
blood glucose level (G) ([3]; participant C, after 90 min): 86 mg/dL
blood insulin level (I) ([3]; participant C, after 90 min): 4.9 µU/mL
blood glucose level (G) ([3]; participant C, after 120 min): 86 mg/dL
blood insulin level (I) ([3]; participant C, after 120 min): 4 µU/mL
blood glucose level (G) ([3]; participant C, after 180 min): 81 mg/dL
blood insulin level (I) ([3]; participant C, after 180 min): 4 µU/mL
